# Measured values reported in US20250326815A1, “STAPLE-CONTAINING POLYPEPTIDES AND APPLICATION THEREOF” (Soter Biopharma Pte. Ltd., priority 2021, published 2025).
# Legend:
# STZ-NASH mouse model = experiment: In vivo drug efficacy in STZ-NASH mouse model; parameters: species or system C57BL/6 mice; details: STZ-NASH mice, 20 nmol/kg SC every two days, 5 weeks, endpoint
# Description: Drug efficacy of the assay substance in the NASH model induced by streptozotocin (STZ)+high-fat diet (HFD) in C57BL/6 mice was verified.
# Modeling method: Newborn mice were subcutaneously injected with STZ (200 μg/mouse) within 48 hours after birth. After 4 weeks of breastfeeding, animals with a fasting blood glucose level of >12 mmol/L were selected and subjected to a HFD feeding for 6 consecutive weeks to finally establish the NASH model. Another 8 animals were selected without STZ injection and HFD feeding (normal control group).
# Administration scheme: Administration was started after one week of HFD feeding, and the first day of administration was set as Day 1. Then, the mice were subcutaneously injected every two days for 5 consecutive weeks.
# Detection at the endpoint of the assay: Pathological hematoxylin-eosin staining and picro sirius red staining were performed.
# [1] = Plasma stability assay (PLS), mouse; assay type: in vitro ADME; details: pH 7.4, 37° C., read-out: PLS (mouse) T1/2
# Description: Stability of the assay compound in normal mouse plasma was studied.
# 1. Before the assay, the coagulated frozen plasma was thawed in a 37° C. water bath. The plasma was centrifuged at 4000 rpm for 5 minutes. If there were blood clots, the blood clots were removed. The pH value was adjusted to 7.4±0.1.
# 2. Preparation of assay compound solution: An assay compound was dissolved in DMSO to prepare a 100 μM solution.
# 3. 98 μL of blank control plasma was added to 2 μL of the assay compound solution (100 μM), so that the final concentration of the mixed solution reached 2 μM. The mixed solution was incubated in a 37° C. water bath.
# 4. 100 μL of H3PO4 solution and 800 μL of stop solution (a solution of 200 ng/ml tolbutamide and 200 ng/ml labetalol in 100% methanol) were added at each time point (0, 10, 30, 60 and 120 min), respectively, to precipitate proteins, and mixed thoroughly.
# 5. The sample was centrifuged at 4000 rpm for 20 min. 100 μL of supernatant from each well was taken for LC-MS/MS analysis.
smiles,measurement,setting,value
CC(C)C[C@H](NC(=O)[C@H](CC(C)C)NC(=O)[C@H](Cc1c[nH]c2ccccc12)NC(=O)[C@H](CCC(=O)O)NC(=O)[C@@H](NC(=O)[C@H](Cc1ccccc1)NC(=O)[C@H](CCC(=O)O)NC(=O)[C@@H]1CCCCNC(=O)CN(C(=O)COCCOCCNC(=O)COCCOCCNC(=O)CC[C@H](NC(=O)CCCCCCCCCCCCCCCCCCC(=O)O)C(=O)O)CC(=O)NCCCC[C@H](NC(=O)[C@H](CCC(=O)O)NC(=O)[C@H](CC(=O)O)NC(=O)[C@H](CC(C)C)NC(=O)[C@H](Cc2ccc(O)cc2)NC(=O)[C@H](CCCCN)NC(=O)[C@H](CO)NC(=O)[C@H](Cc2ccc(O)cc2)NC(=O)[C@H](CC(=O)O)NC(=O)[C@H](CO)NC(=O)[C@@H](NC(=O)[C@H](Cc2ccccc2)NC(=O)[C@@H](NC(=O)CNC(=O)[C@H](CCC(N)=O)NC(=O)C(C)(C)NC(=O)[C@@H](N)Cc2c[nH]cn2)[C@@H](C)O)[C@@H](C)O)C(=O)N[C@@H](CCCCN)C(=O)N[C@@H](C)C(=O)N1)C(C)C)C(=O)N[C@@H](CCC(=O)O)C(=O)NCC(=O)NCC(=O)N1CCC[C@H]1C(=O)N[C@@H](CO)C(=O)N[C@@H](CO)C(=O)NCC(N)=O [WX001],Ballooning score,STZ-NASH mouse model,0
same,Fibrosis (%),STZ-NASH mouse model,1.21%
same,Inflammation score,STZ-NASH mouse model,1.63
same,NAS score,STZ-NASH mouse model,2.63
same,Steatosis score,STZ-NASH mouse model,1.0
same,half-life at 2 μM,[1],> 4.82 h
